Legend:
Type in all cases: functional
A549 [1] = test: Cytotoxicity against human A549 cells at 100 umol/mL after 48 hrs by MTT assay
A549 [2] = test: Cytotoxicity against human A549 cells at 50 umol/mL after 48 hrs by MTT assay
A549 [3] = test: Cytotoxicity against human A549 cells at 200 umol/mL after 48 hrs by MTT assay

Compound	Inhibition (A549 [1]) [%]	Inhibition (A549 [2]) [%]	Inhibition (A549 [3]) [%]
CCOC(=O)c1cc([C@H]2OC[C@@H](OS(C)(=O)=O)[C@@H]2Cl)oc1C	18.55	15.3	27.87
CCOC(=O)c1cc([C@H]2OC[C@@H](N)[C@@H]2Cl)oc1C	16.29	10.09	24.82
CC(=O)c1cc([C@H]2OC[C@@H](N=[N+]=[N-])[C@@H]2Cl)oc1C	48.6	32.73	56.7
CC(=O)c1cc([C@H]2OC[C@@H](N)[C@@H]2Cl)oc1C	24.86	13.04	34.57
CC(=O)c1cc([C@H]2OC[C@@H](O)[C@@H]2Cl)oc1C	31.92	24.36	39.36
CCOC(=O)c1cc([C@H]2OC[C@@H](N=[N+]=[N-])[C@@H]2Cl)oc1C	19.79	18.28	36.89
CC(=O)c1cc([C@H]2OC[C@@H](OS(C)(=O)=O)[C@@H]2Cl)oc1C	35.65	26.42	46.8
CCOC(=O)c1cc([C@H]2OCC(=O)[C@@H]2Cl)oc1C	31.36	28.81	45.68
CCOC(=O)c1cc([C@H]2OC[C@@H](O)[C@@H]2Cl)oc1C	18.51	15.15	25.72
COC(=O)c1cc([C@H]2OCC(=O)[C@@H]2Cl)oc1C	28.55	21.49	37.67
CC(=O)c1cc(C2OC[C@@H](O)[C@@H]2O)oc1C (stereo partly drawn)	27.4	23.14	33.09

From ChEMBL document CHEMBL1139957, “Synthesis of furanosyl alpha-C-glycosides derived from 4-chloro-4-deoxy-alpha-D-galactose and their cytotoxic activities” (2007)
